# System: Glucane Synthesis of Candida Albicans
# Assay: Inhibition of the glucane synthesis of Candida albicans (membrane preparation, 14C-UDP glucose incorporation)
# Type: biochemical
# Details: Candida albicans membranes, 25° C., 1 hour
# Description: Pharmacological Study A—Inhibition of the Glucane Synthesis of Candida Albicans.
# The membranes of Candida albicans are purified according to the process described by Tang and al Antimicrob. Agents Chemother 35, 99–103, 1991. 22.5 μg of membrane proteins are incubated in a mixture of 2 Mm of 14C-UDP glucose (specific activity=0.34 mCi./mmol, 50 μg of α-amylase, 1 Mm of dithiotreitol (DTT), 1 Mm EDTA, 100 Mm NaF, 7 μM of GTP-γ-S, 1M of sucrose and 5 oMm OF Ttris-HCL (pH 7.8) in a volume of 100 μl. The medium is incubated at 25° C. for 1 hour and the reaction terminated by addition of TCA to a final concentration of 5%. The reaction medium is transferred onto a pre-humidified glass fibre filter. The filter is washed, dried and its radioactivity is counted.
# Mulundocandin is used as positive control.
# The control of the medium is carried out with the same quantity of DMSO 1%.
row,Substance,Inhibition of the glucane synthesis of Candida albicans (activity in words)
1,(±) Trifluoroacetate of 1-[4-[(aminoiminomethyl)hydrazono]-N2-(12-methyl-1-oxotetradecyl)-L-ornithine]4-[4-(4-hydroxyphenyl)-L-threonine]-5-L serine echinocandin B [Example 11],good activity
2,Trifluoroacetate of 1-[4-[(2-aminoethyl) amino]-N2-(12-methyl-1-oxotetradecyl)-L-ornithine]4-[4-(4-hydroxyphenyl)-L-threonine]-5-L serine echinocandin B (isomer A and isomer B) [Example 9],good activity
3,Trifluoroacetate of 1-[4-[(2-aminoethyl) amino]N2-[[4′-(octyloxy)[1.1′-biphenyl]-4-[carbonyl]-L-ornithine]4-[4-(4-(4-hydroxyphenyl)-L-threonine]-5-L serine echinocandin B (isomer A) [Example 14],good activity
